From patent US12612410B2 (CHILDREN'S HOSPITAL MEDICAL CENTER, priority 2020, dated 2026)

Tests used:
FLT3 = molecular target: T1, FLT3 (Homo sapiens, UniProt P36888); test: RBC HotSpot Kinase Assay, FLT3; format: biochemical; set-up: purchased Reaction Biology (RBC), HotSpot kinase assay; settings: isolated kinase, 33P-ATP
T1 sequence (P36888 27-993): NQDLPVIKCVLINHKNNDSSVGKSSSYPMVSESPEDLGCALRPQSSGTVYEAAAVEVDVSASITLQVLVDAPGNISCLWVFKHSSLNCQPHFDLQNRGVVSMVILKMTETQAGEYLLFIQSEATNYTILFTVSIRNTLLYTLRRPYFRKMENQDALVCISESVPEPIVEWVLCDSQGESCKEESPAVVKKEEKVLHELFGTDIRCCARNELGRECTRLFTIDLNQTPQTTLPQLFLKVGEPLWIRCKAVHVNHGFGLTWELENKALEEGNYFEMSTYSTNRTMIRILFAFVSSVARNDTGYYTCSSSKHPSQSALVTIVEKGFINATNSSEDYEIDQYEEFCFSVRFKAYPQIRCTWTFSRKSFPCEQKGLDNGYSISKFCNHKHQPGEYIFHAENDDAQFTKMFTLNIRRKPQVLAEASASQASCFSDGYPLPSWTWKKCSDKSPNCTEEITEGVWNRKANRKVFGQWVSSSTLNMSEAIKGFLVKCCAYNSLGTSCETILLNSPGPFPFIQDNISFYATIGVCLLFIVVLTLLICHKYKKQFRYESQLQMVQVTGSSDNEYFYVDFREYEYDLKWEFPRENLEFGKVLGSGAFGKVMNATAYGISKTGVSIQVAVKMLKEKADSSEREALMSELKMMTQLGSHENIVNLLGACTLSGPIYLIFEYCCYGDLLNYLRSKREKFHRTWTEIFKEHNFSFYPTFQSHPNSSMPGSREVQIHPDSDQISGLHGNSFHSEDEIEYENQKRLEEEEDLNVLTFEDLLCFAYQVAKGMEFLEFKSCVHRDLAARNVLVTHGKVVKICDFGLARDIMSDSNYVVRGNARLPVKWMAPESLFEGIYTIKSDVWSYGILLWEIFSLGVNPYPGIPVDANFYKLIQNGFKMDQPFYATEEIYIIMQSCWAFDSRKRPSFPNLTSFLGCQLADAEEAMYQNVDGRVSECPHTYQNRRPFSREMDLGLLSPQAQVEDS
Outline: (§1)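 Kinase domain constructs, possibly truncated, were assayed radiometrically with 33P-ATP and substrate after 20 min compound preincubation, reacting 2 h at room temp.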

MOLM14 D835Y cells = test: MOLM14 D835Y cell viability assay (Cell Titer Glo); format: cell-based; settings: Homo sapiens, MOLM-14, 48 h
Outline: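 MOLM14 cells carrying FLT3 D835Y or F691L were seeded at 1000 cells/well in RPMI-1640 with 20% FBS and dosed at 22 concentrations, 1:2 dilutions from 10 μM. Viability after 48 h by Cell Titer Glo luminescence; 2.3 μM bortezomib as cytotoxic control.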

IRAK4 = molecular target: T2, IRAK4 (Homo sapiens, UniProt Q9NWZ3); test: RBC HotSpot Kinase Assay, IRAK4; format: biochemical; set-up: purchased Reaction Biology (RBC), HotSpot kinase assay; settings: isolated kinase, 33P-ATP
T2 sequence (Q9NWZ3 1-460): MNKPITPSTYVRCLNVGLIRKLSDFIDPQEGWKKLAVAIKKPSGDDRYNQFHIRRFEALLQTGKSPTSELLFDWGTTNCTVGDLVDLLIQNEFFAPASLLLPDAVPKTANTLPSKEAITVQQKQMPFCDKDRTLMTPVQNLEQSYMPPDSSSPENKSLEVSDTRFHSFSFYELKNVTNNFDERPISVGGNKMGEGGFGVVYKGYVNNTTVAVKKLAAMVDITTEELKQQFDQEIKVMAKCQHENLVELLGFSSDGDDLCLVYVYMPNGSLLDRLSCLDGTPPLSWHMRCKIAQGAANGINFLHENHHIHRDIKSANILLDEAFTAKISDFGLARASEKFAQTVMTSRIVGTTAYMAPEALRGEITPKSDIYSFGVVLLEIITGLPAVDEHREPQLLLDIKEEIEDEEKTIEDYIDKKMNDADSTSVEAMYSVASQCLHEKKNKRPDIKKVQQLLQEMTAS
Outline: as §1

IRAK1 = molecular target: T3, IRAK1 (Homo sapiens, UniProt P51617); test: RBC HotSpot Kinase Assay, IRAK1; format: biochemical; settings: isolated kinase, 33P-ATP
T3 construct: purchased Reaction Biology (RBC), HotSpot kinase assay
T3 sequence (P51617 whole entry): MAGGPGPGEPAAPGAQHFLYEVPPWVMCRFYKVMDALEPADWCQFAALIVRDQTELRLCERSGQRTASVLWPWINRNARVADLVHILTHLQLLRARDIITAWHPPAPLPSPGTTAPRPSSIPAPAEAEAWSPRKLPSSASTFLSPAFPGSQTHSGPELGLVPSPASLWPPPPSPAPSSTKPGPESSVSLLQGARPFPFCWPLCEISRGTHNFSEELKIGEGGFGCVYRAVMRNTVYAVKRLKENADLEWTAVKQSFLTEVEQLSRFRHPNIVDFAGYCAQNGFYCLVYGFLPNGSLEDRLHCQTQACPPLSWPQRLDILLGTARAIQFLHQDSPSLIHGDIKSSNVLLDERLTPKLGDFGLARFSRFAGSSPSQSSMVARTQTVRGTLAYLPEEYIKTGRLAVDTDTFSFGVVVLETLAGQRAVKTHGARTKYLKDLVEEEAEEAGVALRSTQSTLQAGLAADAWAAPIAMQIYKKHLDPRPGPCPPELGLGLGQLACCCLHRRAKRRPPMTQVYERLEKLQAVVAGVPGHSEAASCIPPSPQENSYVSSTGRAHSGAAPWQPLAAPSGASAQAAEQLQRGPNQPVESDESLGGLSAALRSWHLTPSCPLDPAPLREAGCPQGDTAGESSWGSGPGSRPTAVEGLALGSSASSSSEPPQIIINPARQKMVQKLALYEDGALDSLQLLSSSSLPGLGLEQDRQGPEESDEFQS
Outline: as §1

MOLM14 F691L cells = test: MOLM14 F691L cell viability assay (Cell Titer Glo); format: cell-based; settings: Homo sapiens, MOLM-14, 48 h
Experimental: Both cell lines have activated FLT3 receptors, each of which carry additional resistance mutations in the kinase domain (D835Y and F691L, respectively).
MOLM14 D835Y and MOLM14 F691L cells were grown in RPMI-1640 media supplemented with 20% fetal bovine serum (FBS). For viability/cytotoxicity assessments, cells were seeded into 1536-well white polystyrene tissue culture-treated Greiner plates using a Multidrop Combi dispenser (ThermoFisher), in final volume 5 μL of growth media per well, at a density of 1000 cells per well. After cell addition, 23 nL of test compound were transferred into individual wells (22 doses tested for each test compound, with a 1:2 dilution series starting at 10 μM) via a 1536 pin-tool. Bortezomib (final concentration 2.3 μM) was used as a positive control for cell cytotoxicity. Plates were incubated for 48 hours at standard incubator conditions covered by a stainless steel gasketed lid to prevent evaporation. 48 hours post compound addition, 3 μL of Cell Titer Glo (Promega) were added to each well and plates were incubated at room temperature for 15 minutes with the stainless-steel lid in place. Luminescence readings were taken using a Viewlux imager (PerkinElmer) with a 2 second exposure time per plate.

SMILES | IC50 (FLT3) | IC50 (MOLM14 D835Y cells) | IC50 (IRAK4) | IC50 (IRAK1) | IC50 (MOLM14 F691L cells)
O=C1COCCN1c1cn2c(-c3cccc(N[C@@H]4CCCNC4)n3)cnc2cn1 [Compound 111, (R)-4-(3-(6-(piperidin-3-ylamino)pyridin-2-yl)imidazo[1,2-a]pyrazin-6-yl)morpholin-3-one] | 0.5 nM | 86 nM | 136 nM | 2130 nM | 344 nM
O=C1COCCN1c1cn2c(-c3cccc(N[C@H]4CNCC[C@@H]4F)n3)cnc2cn1 [Compound 112, 4-(3-(6-(((3S,4S)-4-fluoropiperidin-3-yl)amino)pyridin-2-yl)imidazo[1,2-a]pyrazin-6-yl)morpholin-3-one] | < 0.5 nM | 49 nM | 140 nM | 1860 nM | 183 nM
O=C1CCCCN1c1cn2c(-c3cccc(N[C@@H]4CCCNC4)n3)cnc2cn1 [Compound 113, (R)-1-(3-(6-(piperidin-3-ylamino)pyridin-2-yl)imidazo[1,2-a]pyrazin-6-yl)piperidin-2-one] | 0.7 nM | 172 nM | 1330 nM | 9940 nM | 579 nM
O=C1CCCCN1c1cn2c(-c3cccc(N[C@H]4CNC[C@@H]4F)n3)cnc2cn1 [Compound 114, 1-(3-(6-(((3S,4S)-4-fluoropyrrolidin-3-yl)amino)pyridin-2-yl)imidazo[1,2-a]pyrazin-6-yl)piperidin-2-one] | 1 nM | 460 nM | 132 nM | > 10000 nM | 4860 nM
O=C1CCCCN1c1cn2c(-c3cccc(N[C@H]4CNCC[C@@H]4F)n3)cnc2cn1 [Compound 115, 1-(3-(6-(((3S,4S)-4-fluoropiperidin-3-yl)amino)pyridin-2-yl)imidazo[1,2-a]pyrazin-6-yl)piperidin-2-one] | < 0.5 nM | 92 nM | 150 nM | 9400 nM | 273 nM
O=C1NCCN1c1cn2c(-c3cccc(N[C@@H]4CCCNC4)n3)cnc2cn1 [Compound 116, (R)-1-(3-(6-(piperidin-3-ylamino)pyridin-2-yl)imidazo[1,2-a]pyrazin-6-yl)imidazolidin-2-one] | 1 nM | 39 nM | 14 nM | 125 nM | 193 nM
O=C1NCCN1c1cn2c(-c3cccc(N[C@H]4CNC[C@@H]4F)n3)cnc2cn1 [Compound 117, 1-(3-(6-(((3S,4S)-4-fluoropyrrolidin-3-yl)amino)pyridin-2-yl)imidazo[1,2-a]pyrazin-6-yl)imidazolidin-2-one] | 0.8 nM | 41 nM | 2 nM | 75 nM | 273 nM

Second part, the molecule after the results:

IC50 (FLT3) | IC50 (MOLM14 D835Y cells) | IC50 (IRAK4) | IC50 (IRAK1) | IC50 (MOLM14 F691L cells) | SMILES
< 0.5 nM | 24 nM | 15 nM | 234 nM | 86 nM | O=C1CCCN1c1cn2c(-c3cccc(N[C@@H]4CCCNC4)n3)cnc2cn1 [Compound 120, 1-[3-[6-[[(3R)-3-piperidyl]amino]-2-pyridyl]imidazo[1,2-a]pyrazin-6-yl]pyrrolidin-2-one]
< 0.5 nM | 334 nM | 31 nM | 475 nM | 770 nM | CC(C)(C)c1cn2c(-c3cc(F)cc(N[C@H]4CNC[C@@H]4F)n3)cnc2cn1 [Compound 122, 6-(6-(tert-butyl)imidazo[1,2-a]pyrazin-3-yl)-4-fluoro-N-((3S,4S)-4-fluoropyrrolidin-3-yl)pyridin-2-amine]
0.6 nM | 86 nM | 38 nM | 296 nM | 244 nM | CC(C)(C)c1cn2c(-c3cc(F)cc(N[C@@H]4CCCNC4)n3)cnc2cn1 [Compound 123, (R)-6-(6-(tert-butyl)imidazo[1,2-a]pyrazin-3-yl)-4-fluoro-N-(piperidin-3-yl)pyridin-2-amine]
< 0.5 nM | 130 nM | 17 nM | 143 nM | 290 nM | CC(C)(C)c1cn2c(-c3cc(F)cc(N[C@H]4CNCC[C@@H]4F)n3)cnc2cn1 [Compound 124, 6-(6-(tert-butyl)imidazo[1,2-a]pyrazin-3-yl)-4-fluoro-N-((3S,4S)-4-fluoropiperidin-3-yl)pyridin-2-amine]
< 0.5 nM | 58 nM | 0.6 nM | 108 nM | 326 nM | CC(C)(C)c1cn2c(-c3cccc(N[C@H]4CNC[C@@H]4F)n3)cnc2cn1 [Compound 128, 6-(6-(tert-butyl)imidazo[1,2-a]pyrazin-3-yl)-N-((3S,4S)-4-fluoropyrrolidin-3-yl)pyridin-2-amine]
< 0.5 nM | 27 nM | 10 nM | 438 nM | 168 nM | CC(C)Oc1cn2c(-c3cccc(N[C@@H]4CCCNC4)n3)cnc2cn1 [Compound 131, (R)-6-(6-isopropoxyimidazo[1,2-a]pyrazin-3-yl)-N-(piperidin-3-yl)pyridin-2-amine]
< 0.5 nM | 19 nM | 1 nM | 159 nM | 199 nM | FC(F)COc1cn2c(-c3cccc(N[C@H]4CNCC[C@@H]4F)n3)cnc2cn1 [compound 76, 6-(6-(2,2-difluoroethoxy)imidazo[1,2-a]pyrazin-3-yl)-N-((3S,4S)-4-fluoropiperidin-3-yl)pyridin-2-amine]
< 0.5 nM | 19 nM | 2 nM | 144 nM | 119 nM | CC(C)Oc1cn2c(-c3cccc(N[C@H]4CNCC[C@@H]4F)n3)cnc2cn1 [compound 132, N-((3S,4S)-4-fluoropiperidin-3-yl)-6-(6-isopropoxyimidazo[1,2-a]pyrazin-3-yl)pyridin-2-amine]
